Tests used:
[1] = test system: proteolytic activity of fecal extract; conditions: 0-1 mM emulsions, pH 8.0, room temperature
Protocol: The supernatant was filtered through 0.22 micron cellulose acetate filters and stored at −80° C. until use.

[2] = test system: proteolytic activity of infant urine; conditions: 0-50 mM, pH 8.0, 37° C.
Protocol: The proteolytic activity of infant urine was measured using fluorescently-labeled casein.
Two (2) infant urine (100 μL) samples were added to wells of a 96 white plate (Dynex) containing 80 μL of 12.5 μg/ml solution of a fluorescent dye-labeled casein substrate (EnzChek Protease Assay Kit (E-6639)) in 100 mM Tris-HCl, pH 8.0, and allowed to incubate for 60 minutes at 37° C. […] Reaction of the infant urine with the casein substrate cleaves the fluorescent dye from the substrate. RFUs were collected using the Fluoroskan Ascent System with excitation and emission filters of 485 and 538 nm, respectively. Data were collected each minute for 60 minutes at 37° C. and rates (RFU/min) from 30-50 minutes were calculated for each zinc concentration. Using the uninhibited wells as 100% protease activity, percent of urine proteolytic activity remaining was determined for each concentration of zinc inhibitor (Inhibited Rate/Uninhibited rate* 100).

[3] = test system: EpiDerm™ 201 synthetic skin (keratinocytes), interleukin-1 alpha release
Text: The synthetic skin, EpiDerm™ 201 (MatTek Corporation, Ashland, Mass.) contains keratinocytes that release interleukin-1 alpha (IL-1 alpha) when subjected to proteases in the fecal extract. When the IL-1 alpha was released, it diffused from the skin into the fluid below the EpiDerm™. Samples of this fluid were taken and analyzed for the presence of the IL-1 alpha. Higher levels of IL-1 alpha was indicative of greater skin irritation.
Prior to application onto the EpiDerm™, the fecal extract (10.4 μL) was pre-incubated for 30 minutes at room temperature with 250 mM zinc sulfate heptahydrate in water (2.6 μL). Water only and fecal extract only samples served as controls. After application of the samples to the EpiDerm™, 25 μL aliquots were removed from the underlying media at 8, 12, and 24 hours to test for the presence of the IL-1 alpha. The aliquots were directly added to a 1.5 mL micro-centrifuge tube containing 225 μL of filtered-sterilized 20 mM Tris-HCl, pH 8.0, 1% BSA buffer and stored at −80° C. After all samples were collected, IL-1 alpha levels were quantified using the R&D Systems Interleukin-1 alpha Quantikine Kit (R&D Systems, Minneapolis, Minn.).

[4] = test system: proteolytic activity in the fecal extract; test: Fecal extract protease assay with labeled casein (silk proteins); format: biochemical, infant; conditions: serial dilutions in 100 mM Tris-HCl pH 8.0, room temperature
Protocol: Water soluble silk protein (SERICIN, Pentapharm AG, Basel, Switzerland) and hydrolyzed silk (CROSILK 10,000, Croda, Incorporated, Parsippany, N.J.) were individually shown to inhibit proteolytic activity in the fecal extract that has been implicated to contribute to diaper rash. Serial dilutions of the neat protein and hydrolysate were performed with 100 mM Tris-HCl pH 8.0 as the diluent. The silk protein concentrations were determined using a Macro BCA Protein Assay Reagent Kit (Pierce, Rockford, Ill.).
Fecal extract was prepared as described above for the examples of silk protein and zinc compositions. […] The reaction was initiated with the addition of 100 μL of the 2 μg/ml fecal extract. […] The reaction was run for 30 min. at room temperature and rates (RFU/min) from 10-20 minutes were calculated.

Molecule	inhibition of casein hydrolysis by fecal extract (FIG. 9) [1]	inhibition of casein hydrolysis by infant urine (FIG. 10) [2]	inhibition of fecal extract activity on EpiDerm, concentration series (FIG. 12) ([3]; 0, 25, 50, 125 and 250 mM in 2.6 μL aliquot added to 10.4 μL fecal extract)	interleukin-1 alpha released into underlying media (FIG. 11) ([3]; 250 mM pre-incubated 30 min with fecal extract, relative to FE+water, 8, 12 and 24 hours)	fecal proteolytic activity (FIG. 13) [4]
O.O.O.O.O.O.O.O=S(=O)([O-])[O-].[Zn+2] [zinc sulfate heptahydrate]	effectively inhibited the hydrolysis of casein by the fecal extract in a dose-dependent manner	effectively inhibited the hydrolysis of casein by infant urine in a dose-dependent manner	effectively inhibits the proteolytic activity of fecal extract in a dose-dependent manner	reduced the amount of interleukin-1 alpha released into the underlying media	
SERICIN					reduction of proteolytic activity with increasing concentrations
